The subject of the data set is rodent carcinogenicity bioassays, tumor incidence. Briefly: CCRIS carcinogenicity studies. In outline:
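NCI-built, expert-reviewed records of carcinogenicity and related test outcomes (mutagenicity, tumor promotion/inhibition) compiled from published and report sources, historical span 1985-2011, not updated.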

Calls of active or inactive are those of the source. No rule for the calls is given here.

For `C1CC2OC2CC1C1CO1` (stereo not given), the carcinogen call reads like this: (Species: MOUSE, Route: DERMAL, Tumor Site: Type of Lesion: INTEGUMENTARY SYSTEM (SKIN)) “active; positive”; (Species: MOUSE, Strain/Sex: B6C3F1/FEMALE, Route: DERMAL, Dose: 0, 2.5, 5, 10 MG/MOUSE IN ACETONE 5 D/WK FOR 103 WK, HIGH DOSE FEMALE MICE 85 WK (STUDY DURATION: 105 WK), Dose: 0, 2.5, 5, 10 MG/MOUSE IN ACETONE 5 D/WK FOR 103 WK, HIGH DOSE FEMALE MICE 85 WK (STUDY DURATION: 105 WK), Tumor Site: Type of Lesion: LUNG: ALVEOLAR/BRONCHIOLAR ADENOMA OR CARCINOMA, OVARY: GRANULOSA CELL TUMOR, GRANULOSA CELL TUMOR OR MALIGNANT GRANULOS) “active; positive”; (Species: MOUSE, Strain/Sex: B6C3F1/MALE, Route: DERMAL, Dose: 0, 2.5, 5, 10 MG/MOUSE IN ACETONE 5 D/WK FOR 103 WK (STUDY DURATION: 105 WK), Dose: 0, 2.5, 5, 10 MG/MOUSE IN ACETONE 5 D/WK FOR 103 WK (STUDY DURATION: 105 WK), Tumor Site: Type of Lesion: SKIN (APPLICATION SITE): BASOSQUAMOUS TUMOR MALIGNANT, BASOSQUAMOUS TUMOR MALIGNANT OR BASAL CELL CARCINOMA, SQUAMOUS CE) “active; positive”; (Species: RAT, Strain/Sex: F344/FEMALE, Route: DERMAL, Dose: 0, 15, 30 MG/RAT IN ACETONE 5 D/WK FOR 105 WK (STUDY DURATION: 106 WK), Dose: 0, 15, 30 MG/RAT IN ACETONE 5 D/WK FOR 105 WK (STUDY DURATION: 106 WK), Tumor Site: Type of Lesion: SKIN (APPLICATION SITE): BASAL CELL CARCINOMA, SEBACEOUS GLAND ADENOMA OR BASAL CELL CARCINOMA, SQUAMOUS CELL CARCINOMA) “active; positive”; (Species: RAT, Strain/Sex: F344/MALE, Route: DERMAL, Dose: 0, 15, 30 MG/RAT IN ACETONE 5 D/WK FOR 105 WK (STUDY DURATION: 106 WK), Dose: 0, 15, 30 MG/RAT IN ACETONE 5 D/WK FOR 105 WK (STUDY DURATION: 106 WK), Tumor Site: Type of Lesion: SKIN (APPLICATION SITE): BASAL CELL ADENOMA, BASAL CELL CARCINOMA, BASAL CELL ADENOMA OR SEBACEOUS GLAND ADENOMA, SQUAMO) “active; positive”.
As for `O=NN1CCC(=O)CC1`, the carcinogen call (Species: RAT, Strain/Sex: F344/FEMALE, Route: ORAL, Dose: 0, 80 ML OF SOLUTION OF 115 MG/L IN NEUTRAL DEIONIZED DRINKING WATER 5 D/WK FOR 30 WK (STUDY DURATION: 60 WK), Tumor Site: Type of Lesion: NASAL CAVITY: ESTHESIONEUROEPITHELIOMA, FORESTOMACH: TUMOR, ESOPHAGUS: TUMOR, TONGUE: TUMOR, LIVER: HEPATOCELLULAR CARCI, Tumor Site: Type of Lesion: NASAL CAVITY: ESTHESIONEUROEPITHELIOMA, FORESTOMACH: TUMOR, ESOPHAGUS: TUMOR, TONGUE: TUMOR, LIVER: HEPATOCELLULAR CARCI) was “active; positive”.
With `CCC[CH2][Sn]([CH2]CCC)([O]C(C)=O)[O]C(C)=O`, the carcinogen call (Species: MOUSE, Strain/Sex: B6C3F1/FEMALE, Route: ORAL, Dose: 0, 76, 152 PPM IN DIET, TWA, Dose: 0, 76, 152 PPM IN DIET, TWA) is “inactive; negative”; the carcinogen call (Species: MOUSE, Strain/Sex: B6C3F1/MALE, Route: ORAL, Dose: 0, 76, 152 PPM IN DIET, TWA, Dose: 0, 76, 152 PPM IN DIET, TWA) was “inactive; negative”; the carcinogen call (Species: RAT, Strain/Sex: F344/MALE, Route: ORAL, Dose: 0, 66.5, 133 PPM IN DIET, TWA, Dose: 0, 66.5, 133 PPM IN DIET, TWA) is “inactive; negative”.
On to `C=CC=O`, for which the carcinogen call reads like this: (Species: MOUSE, Strain/Sex: B6C3F1/FEMALE, Route: INTRAPERITONEAL, Dose: 0, 75 NMOL TOTAL DOSE, 1/3 AND 2/3 OF THE TOTAL DOSE ADMINISTERED AT 8 AND 15 DAYS OF AGE RESPECTIVELY, ANIMALS TERMINAT) “inactive; negative”; (Species: MOUSE, Strain/Sex: B6C3F1/FEMALE, Route: INTRAPERITONEAL, Dose: 0, 150 NMOL TOTAL DOSE, 1/3 AND 2/3 OF THE TOTAL DOSE ADMINISTERED AT 8 AND 15 DAYS OF AGE RESPECTIVELY, ANIMALS TERMINA) “inactive; negative”; (Species: MOUSE, Strain/Sex: B6C3F1/MALE, Route: INTRAPERITONEAL, Dose: 0, 75 NMOL TOTAL DOSE, 1/3 AND 2/3 OF THE TOTAL DOSE ADMINISTERED AT 8 AND 15 DAYS OF AGE RESPECTIVELY, ANIMALS TERMINAT) “inactive; negative”; (Species: MOUSE, Strain/Sex: B6C3F1/MALE, Route: INTRAPERITONEAL, Dose: 0, 150 NMOL TOTAL DOSE, 1/3 AND 2/3 OF THE TOTAL DOSE ADMINISTERED AT 8 AND 15 DAYS OF AGE RESPECTIVELY, ANIMALS TERMINA) “inactive; negative”; (Species: MOUSE, Strain/Sex: CD-1/FEMALE, Route: GAVAGE, Dose: 0, 0.5, 2, 4.5 MG/KG (STABILIZED WITH 0.25%-0.3% HYDROQUINONE) 1/D FOR 18 MO (STUDY DURATION: 18 MO), Dose: 0, 0.5, 2, 4.5 MG/KG (STABILIZED WITH 0.25%-0.3% HYDROQUINONE) 1/D FOR 18 MO (STUDY DURATION: 18 MO)) “inactive; negative”; (Species: MOUSE, Strain/Sex: CD-1/MALE, Route: GAVAGE, Dose: 0, 0.5, 2, 4.5 MG/KG (STABILIZED WITH 0.25%-0.31 HYDROQUINONE) 1/D FOR 18 MO (STUDY DURATION: 18 MO), Dose: 0, 0.5, 2, 4.5 MG/KG (STABILIZED WITH 0.25%-0.31 HYDROQUINONE) 1/D FOR 18 MO (STUDY DURATION: 18 MO)) “inactive; negative”. In addition, the carcinogen call (Species: RAT, Strain/Sex: F344/FEMALE, Route: ORAL, Dose: 0, 625 MG/L IN DRINKING WATER 5 D/WK FOR 100 WK (STUDY DURATION: 130 WK)) is “inactive; negative”; the carcinogen call (Species: RAT, Strain/Sex: F344/MALE, Route: INTRAPERITONEAL, Dose: 0, 2 MG/KG 2/WK FOR 9 WK THEN 1.5 MG/KG ONCE IN WK 4 THEN 2/WK FOR 7 WK FOLLOWED BY 1 MG/KG ONCE IN WK 12, TWICE IN WK 1) is “inactive; negative”; the carcinogen call (Species: RAT, Strain/Sex: F344/MALE, Route: ORAL, Dose: 0, 100, 250, 625 MG/L IN DRINKING WATER 5 D/WK FOR UP TO 120 WK (STUDY DURATION: 130 WK), Dose: 0, 100, 250, 625 MG/L IN DRINKING WATER 5 D/WK FOR UP TO 120 WK (STUDY DURATION: 130 WK)) is “inactive; negative”; the carcinogen call (Species: RAT, Strain/Sex: SPRAGUE-DAWLEY/FEMALE, Route: GAVAGE, Dose: 0, 0.05, 0.5, 2.5 MG/KG/D IN WATER FOR 102 WK (STUDY DURATION: 24 MO), Dose: 0, 0.05, 0.5, 2.5 MG/KG/D IN WATER FOR 102 WK (STUDY DURATION: 24 MO)) is “inactive; negative”; the carcinogen call (Species: RAT, Strain/Sex: SPRAGUE-DAWLEY/MALE, Route: GAVAGE, Dose: 0, 0.05, 0.5, 2.5 MG/KG/D IN WATER FOR 102 WK (STUDY DURATION: 24 MO), Dose: 0, 0.05, 0.5, 2.5 MG/KG/D IN WATER FOR 102 WK (STUDY DURATION: 24 MO)) was “inactive; negative”.
`[Cr]`: the carcinogen call (Species: HUMAN, Route: INHALATION, ORAL, Tumor Site: Type of Lesion: LUNG) was “active; positive”.
Turning to `c1ccc2c(c1)ccc1ncccc12`, the carcinogen call by setting is: (Species: RAT, Strain/Sex: SPRAGUE-DAWLEY/FEMALE, Route: SUBCUTANEOUS, Dose: 0, 200 UMOL/KG IN DMSO INTO SUPRASCAPULAR AREA ON DAY 1 OF LIFE FOLLOWED BY 0, 100 UMOL 1/WK AT WK 2-7 THEN O, 200 UMOL/, Dose: 0, 200 UMOL/KG IN DMSO INTO SUPRASCAPULAR AREA ON DAY 1 OF LIFE FOLLOWED BY 0, 100 UMOL 1/WK AT WK 2-7 THEN O, 200 UMOL/) “inactive; negative”; (Species: RAT, Strain/Sex: SPRAGUE-DAWLEY/MALE, Route: SUBCUTANEOUS, Dose: 0, 200 UMOL/KG IN DMSO INTO SUPRASCAPULAR AREA ON DAY 1 OF LIFE FOLLOWED BY 0, 100 UMOL 1/WK AT WK 2-7 THEN O, 200 UMOL/, Dose: 0, 200 UMOL/KG IN DMSO INTO SUPRASCAPULAR AREA ON DAY 1 OF LIFE FOLLOWED BY 0, 100 UMOL 1/WK AT WK 2-7 THEN O, 200 UMOL/) “inactive; negative”.
On to `OCc1ccc2ccc3cccc4ccc1c2c34`, for which, for the setting “Species: RAT, Strain/Sex: SPRAGUE-DAWLEY/FEMALE, Route: SUBCUTANEOUS, Dose: 0, 0.2 UMOL IN 0.1 ML SESAME OIL:DMSO (9:1) 1/2 D FOR 20 DOSES (STUDY DURATION: 52 WK)”, the carcinogen call was “inactive; negative”.
With `O=CC=O`, the carcinogen call (Species: MOUSE, Strain/Sex: CD-1/FEMALE, Route: DERMAL, Dose: 0, 50 UMOL/O.1 ML DMSO 2/WK FOR 5 WK FOLLOWED 1 WK LATER BY 0.1 ML ACETONE 2/WK FOR 47 WK (STUDY DURATION: 52 WK)) was “inactive; negative”.

The values are drawn from PubChem BioAssay AID1259411 (Chemical Carcinogenesis Research Information System (CCRIS), 2018).
